Publication PMC11157767 (Molecular Cancer, 2024)

Test system: TRIM24-MET-i cells
Conditions: GSEA v. DMSO
Procedure: The number of unique and shared differentially expressed genes between each comparison are shown in parentheses. A linear regression line is depicted along with Pearson’s correlation coefficient (r) and its associated p-value. […] Common negatively enriched genesets between all three comparisons are in bold. c, Heatmaps showing expression of Hallmark_Myc_Target_v1/2 genes for indicated cells and treatment comparisons (TRIM-MET cells were treated in vitro, TFG-MET cells in vivo). Select leading edge genes from GSEA are labeled.

CNC(=O)c1ccc(-c2cnc3ncc(Cc4ccc5ncccc5c4)n3n2)cc1F [Capmatinib]
ES GOBP_NCRNA_METABOLIC_PROCESS: -0.6039
ES GOBP_RIBONUCLEOPROTEIN_COMPLEX_BIOGENESIS: -0.6363
ES GOBP_RIBOSOME_BIOGENESIS: -0.7035
ES GOBP_RRNA_METABOLIC_PROCESS: -0.6814
ES GOCC_90S_PRERIBOSOME: -0.8257
ES GOCC_NUCLEOLUS: -0.4698
ES GOCC_PRERIBOSOME: -0.8127
ES GOCC_RIBONUCLEOPROTEIN_COMPLEX: -0.4981
ES GOCC_SMALL_SUBUNIT_PROCESSOME: -0.8233
ES GOMF_CATALYTIC_ACTIVITY_ACTING_ON_RNA: -0.4916
ES GOMF_HYDROLASE_ACTIVITY_ACTING_ON_ACID_ANHYDRIDES: -0.3694
ES GOMF_MRNA_BINDING: -0.4686
ES GOMF_RIBONUCLEOPROTEIN_COMPLEX_BINDING: -0.568
ES GOMF_SNORNA_BINDING: -0.8035
ES HALLMARK_ADIPOGENESIS: -0.2484
ES HALLMARK_ALLOGRAFT_REJECTION: -0.3747
ES HALLMARK_ANDROGEN_RESPONSE: -0.535
ES HALLMARK_ANGIOGENESIS: -0.5762
ES HALLMARK_APICAL_JUNCTION: -0.2832
ES HALLMARK_APICAL_SURFACE: 0.5506
ES HALLMARK_APOPTOSIS: -0.4219
ES HALLMARK_BILE_ACID_METABOLISM: 0.4031
ES HALLMARK_CHOLESTEROL_HOMEOSTASIS: -0.4011
ES HALLMARK_COAGULATION: -0.4551
ES HALLMARK_COMPLEMENT: -0.4981
ES HALLMARK_DNA_REPAIR: -0.2565
ES HALLMARK_E2F_TARGETS: -0.3059
ES HALLMARK_EPITHELIAL_MESENCHYMAL_TRANSITION: -0.2783
ES HALLMARK_ESTROGEN_RESPONSE_EARLY: -0.385
ES HALLMARK_ESTROGEN_RESPONSE_LATE: -0.2661
ES HALLMARK_FATTY_ACID_METABOLISM: 0.234
ES HALLMARK_G2M_CHECKPOINT: -0.3396
ES HALLMARK_GLYCOLYSIS: -0.3498
ES HALLMARK_HEDGEHOG_SIGNALING: -0.4541
ES HALLMARK_HEME_METABOLISM: 0.2869
ES HALLMARK_HYPOXIA: -0.3596
ES HALLMARK_IL2_STAT5_SIGNALING: -0.5259
ES HALLMARK_IL6_JAK_STAT3_SIGNALING: -0.2773
ES HALLMARK_INFLAMMATORY_RESPONSE: -0.4368
ES HALLMARK_INTERFERON_ALPHA_RESPONSE: 0.32
ES HALLMARK_INTERFERON_GAMMA_RESPONSE: -0.2553
ES HALLMARK_KRAS_SIGNALING_DN: 0.2731
ES HALLMARK_KRAS_SIGNALING_UP: -0.491
ES HALLMARK_MITOTIC_SPINDLE: -0.3333
ES HALLMARK_MTORC1_SIGNALING: -0.5528
ES HALLMARK_MYC_TARGETS_V1: -0.6393
ES HALLMARK_MYC_TARGETS_V2: -0.8185
ES HALLMARK_MYOGENESIS: -0.217
ES HALLMARK_NOTCH_SIGNALING: -0.4058
ES HALLMARK_OXIDATIVE_PHOSPHORYLATION: -0.3105
ES HALLMARK_P53_PATHWAY: -0.2547
ES HALLMARK_PANCREAS_BETA_CELLS: 0.3447
ES HALLMARK_PEROXISOME: 0.2566
ES HALLMARK_PI3K_AKT_MTOR_SIGNALING: -0.3267
ES HALLMARK_PROTEIN_SECRETION: -0.3279
ES HALLMARK_REACTIVE_OXYGEN_SPECIES_PATHWAY: -0.337
ES HALLMARK_SPERMATOGENESIS: 0.1852
ES HALLMARK_TGF_BETA_SIGNALING: -0.5788
ES HALLMARK_TNFA_SIGNALING_VIA_NFKB: -0.6019
ES HALLMARK_UV_RESPONSE_DN: -0.3389
ES HALLMARK_UV_RESPONSE_UP: -0.4065
ES HALLMARK_WNT_BETA_CATENIN_SIGNALING: -0.3938
ES HALLMARK_XENOBIOTIC_METABOLISM: 0.19
ES KRIGE_RESPONSE_TO_TOSEDOSTAT_6HR_DN: -0.5928
ES KRIGE_RESPONSE_TO_TOSEDOSTAT_24HR_DN: -0.6267
ES LEE_BMP2_TARGETS_DN: -0.6601
ES PUJANA_CHEK2_PCC_NETWORK: -0.5659
ES WEI_MYCN_TARGETS_WITH_E_BOX: -0.6789
NES GOBP_NCRNA_METABOLIC_PROCESS: -2.536
NES GOBP_NCRNA_PROCESSING: -2.602
NES GOBP_RIBONUCLEOPROTEIN_COMPLEX_BIOGENESIS: -2.684
NES GOBP_RIBOSOME_BIOGENESIS: -2.8623
NES GOBP_RRNA_METABOLIC_PROCESS: -2.7
NES GOCC_90S_PRERIBOSOME: -2.336
NES GOCC_NUCLEOLUS: -2.057
NES GOCC_PRERIBOSOME: -2.789
NES GOCC_RIBONUCLEOPROTEIN_COMPLEX: -2.151
NES GOCC_SMALL_SUBUNIT_PROCESSOME: -2.456
NES GOMF_CATALYTIC_ACTIVITY_ACTING_ON_RNA: -2.047
NES GOMF_HYDROLASE_ACTIVITY_ACTING_ON_ACID_ANHYDRIDES: -1.614
NES GOMF_MRNA_BINDING: -1.915
NES GOMF_RIBONUCLEOPROTEIN_COMPLEX_BINDING: -2.117
NES GOMF_SNORNA_BINDING: -2.308
